We go through 38 compounds from patent US12655156B2, “Oxadiazolopyrazines and oxadiazolopyridines useful as mitochondrial uncouplers” (Virginia Tech Intellectual Properties, Inc., priority 2018, dated 2026).

The structures appear in SMILES notation. pEC50: −log10 of the molar value.

The test concerns whole cells (NMuLi, C2C12, and L6 cells, isolated cardiomyocytes, human primary fibroblasts). The test is described as follows: Oxygen consumption rate (OCR) in whole cells, Seahorse XF-24 Flux Analyzer. It is filed as cell-based. The conditions noted are these: increase in OCR; binned EC50 values. How it is done:
Biological activities of the compounds synthesized is determined by determining increase in oxygen consumption rate (OCR).
Oxygen consumption rate (OCR) in whole cells is measured in general accordance with the method of Kenwood B M et al. (Mol. Met. (2014) 3:114-123).
OCR is measured using a Seahorse XF-24 Flux Analyzer (Seahorse Biosciences, North Billerica, MA). NMuLi, C2C12, and L6 cells are seeded in a Seahorse 24-well tissue culture plate at a density of 3.5×10^4 cells/well, isolated cardiomyocytes at a density of 4×10^4 cells/well, and human primary fibroblasts at a density of 1.1×10^4 cells/well. The cells are then allowed to adhere for 24 h. Prior to the assay, the media is changed to unbuffered DMEM containing pyruvate and glutamine (Gibco #12800-017, pH=7.4 at 37° C.) and the cells are equilibrated for 30 mins at 37°° C. Compounds are injected during the assay and OCR is measured using 2 min measurement periods.
2-3 wells are used per condition and averaged over three plates (n=6-9). Statistical significance is determined by two-way ANOVA with Bonferroni's posttest.
Activities are reported as binned EC50 values: A=5 μM or less; B=>5 to 20 μM; C=over 20 μM; NA=not active.
The pEC50 is −log10 of the EC50, conventionally taken in molar units. Take `Oc1nc2nonc2nc1Nc1ccc(-c2ccccc2)cc1` [1-103, 6-([1,1′-biphenyl]-4-ylamino)-[1,2,5]oxadiazolo[3,4-b]pyrazin-5-ol]: the negative logarithm of the EC50 (pEC50) was no less than 5.30.

`Oc1nc2nonc2nc1Nc1cccc(-c2ccccc2)c1` [1-104, 6-([1,1′-biphenyl]-3-ylamino)-[1,2,5]oxadiazolo[3,4-b]pyrazin-5-ol]: the pEC50 was no less than 5.30. Next, `Oc1nc2nonc2nc1Nc1ccc(-c2ccc(OC(F)(F)F)cc2)cc1` [1-105, 6-((4′-(trifluoromethoxy)-[1,1′-biphenyl]-4-yl)amino)-[1,2,5]oxadiazolo[3,4-b]pyrazin-5-ol]: 4.70 to 5.30; `Oc1nc2nonc2nc1Nc1ccc(-c2cccs2)cc1` [1-106, 6-((4-(thiophen-2-yl)phenyl)amino)-[1,2,5]oxadiazolo[3,4-b]pyrazin-5-ol]: 4.70 to 5.30; `Oc1nc2nonc2nc1Nc1ccc(-c2ccc(C(F)(F)F)nc2)cc1` [1-107, 6-((4-(6-(trifluoromethyl)pyridin-3-yl)phenyl)amino)-[1,2,5]oxadiazolo[3,4-b]pyrazin-5-ol]: 4.70 to 5.30. Then `Oc1nc2nonc2nc1Nc1ccc(-c2ccc(OC(F)F)cc2)cc1` [1-108, 6-((4′-(difluoromethoxy)-[1,1′-biphenyl]-4-yl)amino)-[1,2,5]oxadiazolo[3,4-b]pyrazin-5-ol], with no less than 5.30; and `Oc1nc2nonc2nc1Nc1ccc(-c2ccc(F)c(C(F)F)c2)cc1` [1-109, 6-((3′-(difluoromethyl)-4′-fluoro-[1,1′-biphenyl]-4-yl)amino)-[1,2.5]oxadiazolo[3.4-b]pyrazin-5-ol], with no less than 5.30; and `Oc1nc2nonc2nc1Nc1ccc(-c2cccc(C(F)(F)F)c2)cc1` [1-110, 6-((3′-(trifluoromethyl)-[1,1′-biphenyl]-4-yl)amino)-[1,2,5]oxadiazolo[3,4-b]pyrazin-5-ol], with 4.70 to 5.30. `Oc1nc2nonc2nc1Nc1ccc(-c2cccc(OC(F)(F)F)c2)cc1` [1-111, 6-((3′-(trifluoromethoxy)-[1,1′-biphenyl]-4-yl)amino)-[1,2,5]oxadiazolo[3,4-b]pyrazin-5-ol] showed a negative-log EC50 (pEC50) of 4.70 to 5.30. Compound `Oc1nc2nonc2nc1Nc1cccc(-c2ccc(OC(F)F)cc2)c1` [1-113, 6-((4′-(difluoromethoxy)-[1,1′-biphenyl]-3-yl)amino)-[1,2,5]oxadiazolo[3,4-b]pyrazin-5-ol] had a negative logarithm of the EC50 (pEC50) of no less than 5.30. Then `Oc1nc2nonc2nc1Nc1cccc(-c2ccc(F)c(C(F)F)c2)c1` [1-114, 6-((3′-(difluoromethyl)-4′-fluoro-[1,1′-biphenyl]-3-yl)amino)-[1,2,5]oxadiazolo[3,4-b]pyrazin-5-ol], with no less than 5.30; and `Oc1nc2nonc2nc1Nc1cccc(-c2ccc(C(F)(F)F)nc2)c1` [1-115, 6-((3-(6-(trifluoromethyl)pyridin-3-yl)phenyl)amino)-[1,2,5]oxadiazolo[3,4-b]pyrazin-5-ol], with less than 4.70; and `Oc1nc2nonc2nc1Nc1ccc(F)c(-c2ccc(C(F)(F)F)nc2)c1` [1-116, 6-((4-fluoro-3-(6-(trifluoromethyl)pyridin-3-yl)phenyl)amino)-[1,2,5]oxadiazolo[3,4-b]pyrazin-5-ol], with 4.70 to 5.30. Regarding `Oc1nc2nonc2nc1Nc1ccc(OC(F)(F)F)c(-c2ccc(C(F)(F)F)nc2)c1` [1-117, 6-((4-(trifluoromethoxy)-3-(6-(trifluoromethyl)pyridin-3-yl)phenyl)amino)-[1,2,5]oxadiazolo[3,4-b]pyrazin-5-ol], the pEC50 was 4.70 to 5.30. `CC1(C)c2ccccc2-c2ccc(Nc3nc4nonc4nc3O)cc21` [1-118, 6-((9,9-dimethyl-9H-fluoren-2-yl)amino)-[1,2,5]oxadiazolo[3,4-b]pyrazin-5-ol] gave a negative-log EC50 (pEC50) of no less than 5.30. The compound `Oc1nc2nonc2nc1Nc1cccc(-c2cc(F)cc(F)c2)c1` [1-119, 6-((3′,5′-difluoro-[1,1′-biphenyl]-3-yl)amino)-[1,2,5]oxadiazolo[3,4-b]pyrazin-5-ol] had a pEC50 of no less than 5.30. Regarding `Oc1nc2nonc2nc1Nc1cccc(-c2ccc3c(c2)OCO3)c1` [1-120, 6-((3-(benzo[d][1,3]dioxol-5-yl)phenyl)amino)-[1,2,5]oxadiazolo[3,4-b]pyrazin-5-ol], the negative logarithm of the EC50 (pEC50) is no less than 5.30. Then `Oc1nc2nonc2nc1Nc1ccc(-c2cc(F)cc(F)c2)cc1` [1-121, 6-((3′,5′-difluoro-[1,1′-biphenyl]-4-yl)amino)-[1,2,5]oxadiazolo[3,4-b]pyrazin-5-ol], with no less than 5.30; and `Oc1nc2nonc2nc1Nc1ccc(-c2ccc3c(c2)OCO3)cc1` [1-122, 6-((4-(benzo[d][1,3]dioxol-5-yl)phenyl)amino)-[1,2,5]oxadiazolo[3,4-b]pyrazin-5-ol], with less than 4.70; and `N#Cc1cc(-c2ccc(Nc3nc4nonc4nc3O)cc2)cs1` [1-123, 4-(4-((6-hydroxy-[1,2,5]oxadiazolo[3,4-b]pyrazin-5-yl)amino)phenyl)thiophene-2-carbonitrile], with no less than 5.30. Next, `Oc1nc2nonc2nc1Nc1ccc(-c2ccc(F)cc2)cc1F` [1-124, 6-((3,4′-difluoro-[1,1′-biphenyl]-4-yl)amino)-[1,2,5]oxadiazolo[3,4-b]pyrazin-5-ol]: no less than 5.30; `Oc1nc2nonc2nc1Nc1ccc(-c2ccc(F)cc2)c(F)c1` [1-125, 6-((2,4′-difluoro-[1,1′-biphenyl]-4-yl)amino)-[1,2,5]oxadiazolo[3,4-b]pyrazin-5-ol]: no less than 5.30; `Oc1nc2nonc2nc1Nc1cccc(-c2ccc3c(c2)OC(F)(F)O3)c1` [1-126, 6-((3-(2,2-difluorobenzo[d][1,3]dioxol-5-yl)phenyl)amino)-[1,2,5]oxadiazolo[3,4-b]pyrazin-5-ol]: no less than 5.30. Next, `O=C1c2ccccc2-c2ccc(Nc3nc4nonc4nc3O)cc21` [1-127, 2-((6-hydroxy-[1,2,5]oxadiazolo[3,4-b]pyrazin-5-yl)amino)-9H-fluoren-9-one]: less than 4.70; `COc1cc(-c2ccc(Nc3nc4nonc4nc3O)cc2)ccc1F` [1-128, 6-((4′-fluoro-3′-methoxy-[1,1′-biphenyl]-4-yl)amino)-[1,2,5]oxadiazolo[3,4-b]pyrazin-5-ol]: less than 4.70. On to `N#Cc1cc(-c2ccc(Nc3nc4nonc4nc3O)cc2)ccc1F` [1-129, 4-fluoro-4′-((6-hydroxy-[1,2,5]oxadiazolo[3,4-b]pyrazin-5-yl)amino)-[1,1′-biphenyl]-3-carbonitrile], for which the negative-log EC50 (pEC50) is 4.70 to 5.30. Then `Oc1nc2nonc2nc1Nc1ccc(-c2ccc(C(F)(F)F)cc2)cc1` [1-130, 6-((4′-(trifluoromethyl)-[1,1′-biphenyl]-4-yl)amino)-[1,2,5]oxadiazolo[3,4-b]pyrazin-5-ol], with 4.70 to 5.30; and `Oc1nc2nonc2nc1Nc1cccc(-c2ccc(C(F)(F)F)cc2)c1` [1-131, 6-((4′-(trifluoromethyl)-[1,1′-biphenyl]-3-yl)amino)-[1,2,5]oxadiazolo[3,4-b]pyrazin-5-ol], with no less than 5.30; and `Cc1ccc(-c2cccc(Nc3nc4nonc4nc3O)c2)cc1` [1-132, 6-((4′-methyl-[1,1′-biphenyl]-3-yl)amino)-[1,2,5]oxadiazolo[3,4-b]pyrazin-5-ol], with no less than 5.30. For the compound `Oc1nc2nonc2nc1Nc1cccc(-c2ccc(Cl)cc2)c1` [1-133, 6-((4′-chloro-[1,1′-biphenyl]-3-yl)amino)-[1,2,5]oxadiazolo[3,4-b]pyrazin-5-ol], the pEC50 is no less than 5.30. The compound `Oc1nc2nonc2nc1Nc1cccc(-c2ccc(F)cc2)c1` [1-134, 6-((4′-fluoro-[1,1′-biphenyl]-3-yl)amino)-[1,2,5]oxadiazolo[3,4-b]pyrazin-5-ol] had a negative-log EC50 (pEC50) of no less than 5.30.

`Oc1nc2nonc2nc1Nc1cccc(-c2cccc(C(F)(F)F)c2)c1` [1-135, 6-((3′-(trifluoromethyl)-[1,1′-biphenyl]-3-yl)amino)-[1,2,5]oxadiazolo[3,4-b]pyrazin-5-ol] showed a negative logarithm of the EC50 (pEC50) of no less than 5.30. In the case of `Oc1nc2nonc2nc1Nc1cccc(-c2ccc(OC(F)(F)F)cc2)c1` [1-136, 6-((4′-(trifluoromethoxy)-[1,1′-biphenyl]-3-yl)amino)-[1,2,5]oxadiazolo[3,4-b]pyrazin-5-ol], the pEC50 is no less than 5.30. Then `COc1cccc(-c2ccc(Nc3nc4nonc4nc3O)cc2)c1` [1-137, 6-((3′-methoxy-[1,1′-biphenyl]-4-yl)amino)-[1,2,5]oxadiazolo[3,4-b]pyrazin-5-ol], with no less than 5.30; and `CC(=O)COc1nc2nonc2nc1Nc1ccc(-c2ccc(F)cc2)cc1` [1-190, 1-((6-((4′-fluoro-[1,1′-biphenyl]-4-yl)amino)-[1,2,5]oxadiazolo[3,4-b]pyrazin-5-yl)oxy)propan-2-one], with no less than 5.30; and `O=C(Nc1nc2nonc2nc1OCc1ccccc1)c1ccc(C(F)(F)F)cc1` [1-196, N-(6-(benzyloxy)-[1,2,5]oxadiazolo[3,4-b]pyrazin-5-yl)-4-(trifluoromethyl)benzamide], with 4.70 to 5.30. Then `Oc1nc2nonc2nc1Nc1ccc(C2CCCCC2)cc1` [1-205, 6-((4-cyclohexylphenyl)amino)-[1,2,5]oxadiazolo[3,4-b]pyrazin-5-ol], with no less than 5.30; and `O=[N+]([O-])c1cccc(Nc2nc3nonc3nc2O)c1` [1-206, 6-((3-nitrophenyl)amino)-[1,2,5]oxadiazolo[3,4-b]pyrazin-5-ol], with less than 4.70.
